Experimental data reported in patent publication US7030257B2, “Metallocenes and processes for their preparation” (Agency for Science, Technology and Research, priority 2004, dated 2006).

System: double-stranded DNA
Assay: Competition experiment against ethidium bromide (EB) for binding to EB-saturated double-stranded DNA, gel electrophoresis fluorescence readout
From the text: A competition experiment was designed to obtain an estimate of the nucleic acid intercalating property of the compound of the invention. The basis of this methodology involves the use of two intercalators, one fluorescent and one non-fluorescent. The fluorescent intercalator first saturates the double-stranded DNA. Then a second intercalator, in this case VFcTMEDA, is introduced into the system with gradual increasing concentration. […] For the competition experiment, the changes in fluorescent intensity were monitored during the displacement of DNA-bound fluorescent molecules by VFcTMEDA through an increasing concentration of the VFcTMEDA molecules in the system. A well-known threading intercalator, ethidium bromide (EB), was chosen as our fluorescent indicator.
Subsequently, VFcTMEDA was studied with respect to its ability to compete against EB for binding to DNA using the same approach. Different amounts of VFcTMEDA were mixed with the EB saturated double-stranded DNA to examine the bind ability. […] Lanes 1 to 5 correspond to different ratios of VFcTMEDA/EB.

## vinylferrocene tetramethylethylenediamine [VFcTMEDA]
Kd of VFcTMEDA relative to EB
  enhancement of binding constant over EB: ~26 fold
VFcTMEDA/EB molecular ratio 1/5 (second lane)
  DNA-bound EB replaced: more than 50%
